Earlier results on 2 compounds are cited in US20250241354A1, “ORAL PRODUCTS” (RAI STRATEGIC HOLDINGS, INC., priority 2024, published 2025).

The conditions of the series: in words.

Consider `CC(/C=C/C=C(C)/C=C/C(=O)O)=C\C=C\C=C(C)\C=C\C=C(C)\C=C\C(=O)O` (stereo in doubt) [norbixin, (2E,4E,6E,8E,10E,12E,14E,16E,18E)-4,8,13,17-tetramethylicosa-2,4,6,8,10,12,14,16,18-nonaenedioic acid], for which the solubility result is listed as “water-soluble”.
`COC(=O)/C=C/C(C)=C\C=C\C(C)=C\C=C\C=C(C)\C=C\C=C(C)\C=C\C(=O)O` [bixin, (2E,4E,6E,8E,10E,12E,14E,16Z,18E)-20-methoxy-4,8,13,17-tetramethyl-20-oxoicosa-2,4,6,8,10,12,14,16,18-nonaenoic acid]: the solubility entry is “soluble in fats and alcohols but insoluble in water”.
